Experimental findings from patent US20180258100A1, “RAPAMYCIN ANALOGS SHOWING IMPROVED mTORC1 SPECIFICITY” (priority 2015, published 2018) are described below.

Several values for one entry are separate records, joined by “and”; a condition that tells them apart may be missing. Equal values may be shown once.

One data set has as its target T1, mTORC1 (Homo sapiens, UniProt P42345+P62942).
T1 construct: endogenous in cells; host or cells: PC3 cells
Nature of the data set: AlphaLISA SureFire in PC3 cells, phosphorylation of S6 at Ser240/Ser244 (mTORC1 inhibition, selectivity ratios). Type of data set: cell-based. The procedure:
PC3 cells were maintained in F12K media (ATCC/GIBCO, Cat# ATCC 30-2004) supplemented with additional 10% FBS (Gemini, cat#100-106), 1% Penicillin/Streptomycin (Life Technologies, cat #15140-122), and 2 mM L-Glutamine (Life Technologies, cat#25030) and cultured at 37° C. For AlphaLISA experiments, cells were seeded in 96-well plates for 24 hours and treated at various concentrations of compound (from approx. 8 fM to 10 μM) for 24 hours. Cells were harvested by lysis in the buffer supplied with the AlphaLISA kit. […] Cells from plates were lysed and incubated for 10 min at room temperature while shaking. Cell lysates were incubated with acceptor mix for 2 hours at room temperature; the donor mix was then added and the resulting solution was incubated for 2 hours at room temperature. AlphaLISA® signal was determined on a Fusion-Alpha FP HT (Perkin Elmer). Percent inhibition was calculated by comparison to the highest inhibition value obtained in the response-concentration curve. IC50s were calculated using Prism software.
(In general: Alpha assays give light when donor and acceptor beads are brought close together.)

Data set [1] deals with T2, mTORC2 (Homo sapiens, UniProt P42345+P62942).
T2 construct: endogenous in cells; host or cells: PC3 cells
Nature of the data set: AlphaLISA SureFire Akt 1/2/3 in PC3 cells, phosphorylation of Akt at Ser473 (mTORC2 inhibition). Type of data set: cell-based.
Experimental: mTORC1 inhibition was determined using the AlphaLISA® SureFire® kit (Perkin Elmer) which measures phosphorylation of S6 kinase at positions Ser^240 and Ser^244. mTORC2 inhibition was determined by the AlphaLISA® SureFire® kit for Akt 1/2/3, which determines phospholyltation of Akt protein at position Ser^473. Cells from plates were lysed and incubated for 10 min at room temperature while shaking. Cell lysates were incubated with acceptor mix for 2 hours at room temperature; the donor mix was then added and the resulting solution was incubated for 2 hours at room temperature. AlphaLISA® signal was determined on a Fusion-Alpha FP HT (Perkin Elmer). Percent inhibition was calculated by comparison to the highest inhibition value obtained in the response-concentration curve. IC50s were calculated using Prism software. […]

For data set [2], the target named is mTORC2 (Mus musculus, UniProt P26883+Q9JLN9). Nature of the data set: Western blot of mouse tissues after 3 weeks i.p. dosing, mTORC2 (P-AKT/Total AKT). The format is in vivo, female C57BL/6J mice. The settings on record: soleus muscle, 12 mg/kg i.p. every other day for 3 weeks. The procedure:
(§1) 10-week old female C57BL/6J mice were given intraperitoneal injections of 8 mg/kg rapamycin (LC laboratories), 12 mg/kg compound 390 or vehicle every other day for three weeks (N=5 mice/group), such as to mimic chronic exposure conditions. 24 hours after the last injection, tissues were dissected from the mice and immediately frozen in liquid nitrogen. The tissues were homogenized using the Omni TH homogenizer (Omni International) on ice in RIPA buffer and then centrifuged at 13,000 rpm for 15 minutes at 4° C. The supernatants were collected and protein concentration was determined using the DC protein assay (Biorad).
The mTORC1/2 inhibition was determined by Western blots. Equal amounts of protein were resolved by SDS-PAGE and transferred to nitrocellulose membrane using the Invitrogen Nu-Page system. The membranes were blocked for 1 h in 5% milk and incubated overnight in the appropriate antibodies. The following day, blots were washed 3 times in TBST, incubated for 2 h with secondary antibodies (donkey anti rabbit hrp conjugated), and finally washed an additional 3 times in TBST. ECL Prime (Amersham) was used to detect the proteins of interest and ImageJ software was used to quantify the band intensity of the Western blots.
A general note: A western blot detects proteins with antibodies after separation by electrophoresis.

The nature of data set [3]: Plasma lipid levels after chronic i.p. dosing. The settings on record: rapamycin 8 mg/kg, compound 390 12 mg/kg i.p. every other day; versus vehicle. The format is in vivo, female C57BL/6J mice. How it is done:
as §1
Plasma lipid levels were determined at the end of the three-week exposure. Free fatty acids in the serum were measured by the HR Series NEFA-HR(2) (Wako Diagnostics, Richmond, Va.). Triglycerides and cholesterol in serum were measured by Triglycerides Liquicolor Test and Cholesterol Liquicolor Test (Stanbio laboratory, Boerne, Tex.), respectively.

Data set [4] in a line: Insulin challenge response. Type of data set: in vivo, female C57BL/6J mice. The settings on record: 0.75 IU/kg insulin after 2 weeks; rapamycin 8 mg/kg, compound 390 12 mg/kg i.p. every other day. How it is done: FIG. 10. Response to insulin challenge following administration of 0.75 IU/kg insulin at t=2 weeks following the initiation of the intraperitoneal administrations of 8 mg/kg rapamycin, 12 mg/kg compound 390 or vehicle control every other day in female mice (N=5).
as §1

The nature of data set [5]: Glucose tolerance test after 2 weeks of chronic dosing. Type of data set: in vivo, male C57BL/6J mice. The settings on record: rapamycin 8 mg/kg, compound 390 12 mg/kg every other day, male mice. How it is done:
Fortyfive C57BL/6J male mice, housed three per cage, were weighed and their body composition was measured with an EchoMRI 3-in-1 system. […] Mice received every-other-day injections of either vehicle, rapamycin (8 mg/kg), or compound 390 (12 mg/kg). A glucose tolerance test was performed after 2 weeks (morning after the 8th injection). A pyruvate tolerance test was performed after 3 weeks. Glucose stimulated insulin secretion assay was performed after 4 weeks and additional blood was collected for whole blood analysis. Body composition was measured on day −2 and day 31.
Mice were fasted overnight for 16 hours and then injected with either glucose (1 g/kg) or pyruvate (2 g/kg) intraperitoneally. For glucose and pyruvate tolerance tests, small blood samples were taken from a tail vein nick at time intervals and read using a Bayer Contour blood glucose meter and test strips. For glucose-stimulated insulin secretion, blood glucose levels were read using a glucometer and then 50 μL of blood was collected into a heparinized tube immediately prior to and 15 minutes following glucose administration. Insulin levels were determined using a Mouse Insulin ELISA kit (Crystal Chem).

The mark [6] stands for this setting: heart, visceral fat, pancreas, kidney.

Sequence of mTORC2 (Mus musculus, UniProt P26883+Q9JLN9) (P26883 2-108 limits assumed, other chains not shown): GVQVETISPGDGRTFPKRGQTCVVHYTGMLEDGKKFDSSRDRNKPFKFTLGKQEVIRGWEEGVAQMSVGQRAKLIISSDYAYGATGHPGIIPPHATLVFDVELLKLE
T2 sequence (P62942 2-108 limits assumed, other chains not shown): as the sequence (P26883 2-108 limits assumed, other chains not shown) above, with T49M, I75T, S78P counted along it

With `CO[C@H]1CC2CC[C@@H](C)[C@@](O)(O2)C(=O)C(=O)N2CCCC[C@H]2C(=O)O[C@H]([C@@H](C)CC2CCC(O)CC2)CC(=O)[C@@H](C)/C=C(\C)[C@H](O)[C@H](O)C(=O)[C@@H](C)C[C@H](C)/C=C/C=C/C=C/1C` (some centres unmarked) [compound 390, 27-O-Desmethyl-39-Desmethoxy Rapamycin], at mTORC1 (AlphaLISA IC50 ratios), the “improvement of mTORC1 over mTORC2 selectivity compared to rapamycin (average)” value came out at 51 fold and the “improvement of mTORC1 over mTORC2 selectivity compared to rapamycin (range)” value is 52-63 fold. In addition, the “Average IC50^mTORC2/IC50^mTORC1” value at mTORC1 (average of four replicates, 24 h) turned out to be 429.90. Further, the “IC50^mTORC2/IC50^mTORC1” value at mTORC1 (single replicates #1-#4 (N = 3 each), mTORC2 IC50 of the measurement divided by average mTORC1 IC50, 24 h, listed as nID390) is 477.07 and 533.79 and 445.85 and 262.89. Besides, the “lower inhibition of mTORC2 compared to rapamycin” value on mTORC2 [1] was roughly 150 fold. Moreover, the “mTORC2 inhibition in tissues” value at mTORC2 [2] (gastrocnemius muscle, lung, liver) is given as “very weak”. At mTORC2 [2] (setting [6]), the “change of mTORC2 activity in tissues” value is “small upregulation of mTORC2 activity” and the “mTORC2 inhibition in tissues” value is “no inhibition of mTORC2”. Moreover, in data set [3], the plasma cholesterol entry was “did not produce any changes”, the “plasma free fatty acids” value was “did not produce any changes” and the plasma triglycerides entry was “did not produce any changes”. Further, in data set [4], the “glucose response after insulin challenge (insulin resistance)” value is “indistinguishable from the vehicle-receiving control animals”. The glucose tolerance test entry in data set [5] (after 2 weeks) was “identical to the vehicle-receiving animals”. Also, the fasting hyperglycemia result in data set [5] (chronic dosing) is recorded as “does not cause”.
